From patent US5686494A, “Pharmaceutical preparations for ameliorating epigastric functional disorders” (Daiichi Pharmaceutical Co., Ltd., priority 1993, dated 1997)
Several values for one entry are separate records, joined by “and”; a condition that tells them apart may be missing. Identical values can stand only once. Ends that are not written are not given here. * marks the point of attachment. SO3H = O=S(=O)(O)*

How the values were obtained:
[1] = test system: patients diagnosed as chronic gastritis and the like without morphological changes in the stomach; assay: Effects on subjective symptoms in patients; format: in vivo, human
Text: (§1) Effects on subjective symptoms and gastric emptying in patients
(§2) A total of 8 patients diagnosed as chronic gastritis and the like without morphological changes in the stomach were examined in this test, each patient complaining of medium or more intense chronic epigastric fullness, having other NUD (or epigastric dysfunction complaints) such as gastric oppression, nausea, vomiting, anorexia, heartburn and the like and also showing delayed gastric emptying.
(§3) Each patient was allowed to take 2 tablets of the test pharmaceutical preparation of Example 1 three times a day 15 to 30 minutes before morning, noon and evening meals (600 mg of compound A/day), and the administration was continued for 2 weeks. Subjective symptoms (Table 3) were checked before and 2 weeks after the administration and gastric emptying (Table 4) was checked before and 2 weeks after the administration.
Subjective symptoms were examined by checking existence of the symptoms before and 2 weeks after the administration.

[2] = test system: patients diagnosed as chronic gastritis and the like without morphological changes in the stomach; assay: Effect on gastric emptying in patients (acetaminophen method); format: in vivo, human
Text: as §1, §2, §3
Gastric emptying was examined in accordance with the acetaminophen method of Heading et al (cf. Br. J. Pharmacol. 47 415-421 (1973)). That is, each patient after overnight fasting with no drug administration was allowed to take a test food (200 ml of a liquid natural food OKUNOS-A, thoroughly mixed with 1.5 g of acetaminophen) at 9 a.m. and then to take a seat without eating and drinking until completion of the examination. Heparinized blood samples were collected before and 45 minutes after the administration. Thereafter, serum was separated from each sample to measure serum acetaminophen concentration by a high performance liquid chromatography (HPLC).

[3] = test system: dopamine-induced delayed gastric emptying model; assay: Effect on gastric emptying in dopamine-induced delayed gastric emptying model (phenol red method); format: in vivo, male Slc:ddY mice; details: for Gastric emptying rate (%): 90 min before phenol red, dopamine 30 mg/kg i.p. 5 min before, measured 30 min after phenol red
Method: Effect on gastric emptying in dopamine-induced delayed gastric emptying model (phenol red method) After overnight fasting, male Slc:ddY mice of 6 to 7 weeks of age (body weight, 28 to 32 g; SLC, Shizuoka, Japan) were divided into 7 groups, namely a group in which dopamine was administered with no drug treatment (No. 1 in Table 2), groups in which dopamine was administered after administration of the compound A (Nos. 2 to 5), a group in which dopamine was administered after administration of cisapride as a positive control (No. 6) and a group in which dopamine and drug treatments were not made (No. 7). Seven mice were used in each group. First, 90 minutes before the administration of phenol red, 0.01 mg/kg, 0.03 mg/kg, 0.1 mg/kg or 0.3 mg/kg of the compound A suspended in 0.5% carboxymethylcellulose was orally administered to mice of the compound A administration groups (Nos. 2 to 5), 3 mg/kg of cisapride suspended in 0.5% carboxymethylcellulose was orally administered to mice as the positive control drug administration group (No. 6) and 0.5% carboxymethylcellulose was orally administered to mice as the dopamine administration group with no drug treatment (No. 1) and the no drug and no dopamine treatment group (No. 7). Next, 5 minutes before the phenol red administration, 30 mg/kg of dopamine which has been dissolved in distilled water and then diluted with physiological saline was intraperitoneally administered to mice of each group. Thereafter, phenol red dissolved in 1% methylcellulose was orally administered with a dose of 0.2 mg/0.3 ml/mouse. […] mouse/X)]×100 (X is an average value of the recovered phenol red remained in the stomach excised from each mouse sacrificed just after the phenol red administration)

[4] = test system: cholecystokinin (CCK)-induced delayed gastric emptying model; assay: Effect on gastric emptying in cholecystokinin (CCK)-induced delayed gastric emptying model (Phenol red method); format: in vivo, male Slc:ddY mice; details: for Gastric emptying rate (%): 90 min before phenol red, CCK 5 μg/kg i.p. 5 min before, measured 30 min after phenol red
Method: Effect on gastric emptying in cholecystokinin (CCK)-induced delayed gastric emptying model (Phenol red method)
After overnight fasting, male Slc:ddY mice of 6 to 7 weeks of age (body weight, 20 to 30 g; SLC, Shizuoka, Japan) were divided into six groups: a group in which cholecystokinin was administered with no drug treatment (No. 1 in Table 1), groups in which cholecystokinin was administered after administration of compound A (Nos. 2 to 4), a group in which cholecystokinin was administered after administration of cisapride as a positive control (No. 5) and a group in which cholecystokinin and drug treatments were not made (No. 6). Five to 15 mice were used in each group.
First, 90 minutes before the administration of phenol red, 1 mg/kg, 3 mg/kg or 10 mg/kg of compound A suspended in 0.5% carboxymethylcellulose was orally administered to mice of the compound A administration groups, respectively, (Nos. 2 to 4), 3 mg/kg of cisapride suspended in 0.5% carboxymethylcellulose was orally administered to mice as the positive control drug administration group (No. 5) and 0.5% carboxymethylcellulose was orally administered to mice of the […] (No. 1) and the no drug and no cholecystokinin treatment group (No. 6). Next, 5 minutes before the phenol red administration, 5 μg/kg of cholecystokinin (CCK8s, manufactured by Sigma) which had been dissolved in distilled water and then diluted with physiological saline was intraperitoneally administered to mice of each group. Thereafter, phenol red dissolved in 1% methylcellulose was orally administered with a dose of 0.2 mg/0.3 ml/mouse. After 30 minutes of the phenol red administration, each mouse was sacrificed by cervical dislocation to excise the stomach, and the amount of phenol red remaining in the excised stomach was measured to calculate the gastric emptying rate (%) by the following formula.
Gastric emptying rate (%)=[1-(phenol red recovered from drug-applied
(X is the average value of the recovered phenol red remaining in the stomach excised from each mouse sacrificed just after the phenol red administration)

[5] = 2 tablets of Example 1 three times a day (600 mg of compound A/day), 2 weeks

CNC(=O)c1cccc(NCC(=O)NCCc2ccc(OC)c(OC)c2)c1 [Compound A, 3-[[[2-(3,4-dimethoxyphenyl)ethyl]carbamoyl]methyl]amino-N-methylbenzamide]
Symptom-disappeared cases/tested cases: Abdominal distension [1, 5]: 7/7 | Symptom-disappeared cases/tested cases: Anorexia [1, 5]: 3/3 | Symptom-disappeared cases/tested cases: Epigastralgia [1, 5]: 4/4 | Symptom-disappeared cases/tested cases: Gastric disphoria [1, 5]: 4/4 | Symptom-disappeared cases/tested cases: Heartburn [1, 5]: 2/2 | Symptom-disappeared cases/tested cases: Nausea [1, 5]: 4/4 | Symptom-disappeared cases/tested cases: Vomiting [1, 5]: 3/3 | disappearance of subjective symptoms ([1]; patients No. 1 to No. 8, after 2 weeks, 600 mg/day oral): complete disappearance of subjective symptoms | Serum acetaminophen concentration, After administration ([2]; 2 weeks after start, 600 mg of compound A/day oral, individual patients No. 1 to 8 in order, 45 minutes after 1.5 g acetaminophen in test food): 7.6 µg/mL and 10.1 µg/mL and 12.8 µg/mL and 7.8 µg/mL and 7.3 µg/mL and 8.1 µg/mL and 8.5 µg/mL and 7.1 µg/mL | amelioration of gastric emptying (cases) ([2]; 2 weeks, 600 mg of compound A/day oral): 7 of the 8 | Serum acetaminophen concentration, Before administration ([2]; baseline before drug administration, individual patients No. 1 to 8 in order, 45 minutes after 1.5 g acetaminophen in test food): 7.6 µg/mL and 8.4 µg/mL and 8.0 µg/mL and 6.1 µg/mL and 6.9 µg/mL and 6.6 µg/mL and 5.2 µg/mL and 4.6 µg/mL | Gastric emptying rate (%) ([3]; 0.01 mg/kg oral): 6.9 ± 4.7% | gastric emptying rate improved ([3]; 0.01 mg/kg, 0.03 mg/kg, 0.1 mg/kg or 0.3 mg/kg oral, vs dopamine-treated mice with reduced gastric emptying rate): improved | Gastric emptying rate (%) ([3]; 0.03 mg/kg oral): 21.2 ± 6.1% | Gastric emptying rate (%) ([3]; 0.1 mg/kg oral): 18.1 ± 8.3% | Gastric emptying rate (%) ([3]; 0.3 mg/kg oral): 36.2 ± 10.2% | Gastric emptying rate (%) ([4]; 1 mg/kg oral): 24.8 ± 2.1% | gastric emptying rate improved ([4]; 1 mg/kg, 3 mg/kg or 10 mg/kg oral, vs CCK-treated mice with reduced gastric emptying rate): improved in a dose dependent fashion | Gastric emptying rate (%) ([4]; 3 mg/kg oral): 27.6 ± 4.2% | Gastric emptying rate (%) ([4]; 10 mg/kg oral): 40.5 ± 6.9%

COc1cc(N)c(Cl)cc1C(=O)NC1CCN(CCCOc2ccc(F)cc2)CC1OC (stereo not drawn) [Cisapride, cisapride, reference compound]
Gastric emptying rate (%) ([3]; 3 mg/kg oral): 23.4 ± 6.6% | Gastric emptying rate (%) ([4]; positive control, 3 mg/kg oral): 36.7 ± 6.8%

NCCc1ccc(O)c(O)c1 [dopamine, reference compound]
gastric emptying rate reduced to (fraction) ([3]; 30 mg/kg dopamine intraperitoneal, no drug): 1/20

cholecystokinin (DY(SO3H)MGWMDF; not fully specified (C-terminus); ends and bridges not checked; UniProt P06307 96-103, looked up) [cholecystokinin (CCK8s, manufactured by Sigma), reference compound]
gastric emptying rate reduced to (fraction) ([4]; 5 μg/kg cholecystokinin intraperitoneal, no drug): 1/3
